Reference: patent US8388939B2, “Moisturizing cosmetic composition comprising a combination of homarine and erythritol” (Sederma, S.A.S., priority 2008, dated 2013)

Test system: Human keratinocytes
Test: Synergistic osmo-protective activity of homarine and erythritol after NaCl hyper-osmotic stress; UPTIBLUE cell count
Type: cell-based
Procedure: Human kerotinocytes were cultured for 24 h in a culture medium (DMEMc+FCS) than incubated until confluence was obtained. At this stage, the cells were putted in pre-contact with the compounds for 24 h. The day after, a 5h NaCl stress in the presence of the compounds was applied to the cells in the DMEMc medium (without FCS, with BSA) containing 150 mM of NaCl. After this stress, cells were rinced and were recovered with or without the compounds to be tested in the same medium as before (T0). Recovery was estimated at long term by measuring the survival at T5 days and at T7 days after the beginning of the stress (T0). The compounds were tested at the following concentrations: erythritol 0.6%, homarine 0.006% (corresponding to 1×) and homarine 0.06% (corresponding to 10×).
The UPTIBLUE technic was used to visualize and quantify the cell number after the hyper-osmotic shock and the osmo-protective effect of the compound was thus evaluated.

| SMILES | % of change in cell count versus control (post-stress) (T0, erythritol 0.6% alone) [%] | % of change in cell count versus control (post-stress) (T5 days, erythritol 0.6% alone) | % of change in cell count versus control (post-stress) (T7 days, erythritol 0.6% alone) | Osmo-protective effect with regards a hyper-osmotic stress, in words (5 and 7 days after hyper-osmotic shock) | % of change in cell count versus control (post-stress) (T0, homarine 0.006% (1x), erythritol 0.6% where combined) | % of change in cell count versus control (post-stress) (T0, homarine 0.06% (10x), erythritol 0.6% where combined) | % of change in cell count versus control (post-stress) (T5 days, homarine 0.006% (1x), erythritol 0.6% where combined) | % of change in cell count versus control (post-stress) (T5 days, homarine 0.06% (10x), erythritol 0.6% where combined) | % of change in cell count versus control (post-stress) (T7 days, homarine 0.006% (1x), erythritol 0.6% where combined) | % of change in cell count versus control (post-stress) (T7 days, homarine 0.06% (10x), erythritol 0.6% where combined) |
| --- | --- | --- | --- | --- | --- | --- | --- | --- | --- | --- |
| OC[C@@H](O)[C@@H](O)CO [Erythritol] | −8 | +39% | +62% |  |  |  |  |  |  |  |
| C[n+]1ccccc1C(=O)[O-] [Homarine] |  |  |  | dose dependant | +10% | +14% | +33% | +93% | +26% | +130% |
